Test results reported in patent publication US20140163012A1, “PYRIDO-/AZEPINO-BENZOFURAN AND PYRIDO-/AZEPINO-BENZOTHIOPHENE MCH-1 ANTAGONISTS, METHODS OF MAKING, AND USE THEREOF” (Albany Molecular Research, Inc., priority 2012, published 2014).

Assays:
[1] = target: human MCH-1 receptor (Homo sapiens, UniProt Q99705); assay: Binding assay for human melanin-concentrating hormone (MCH-1) receptor, radioligand displacement on CHO-K1 cell membranes; conditions: read-out: MCH1 % inhibition @ 1 uM
Chain of human MCH-1 receptor (Q99705 whole entry): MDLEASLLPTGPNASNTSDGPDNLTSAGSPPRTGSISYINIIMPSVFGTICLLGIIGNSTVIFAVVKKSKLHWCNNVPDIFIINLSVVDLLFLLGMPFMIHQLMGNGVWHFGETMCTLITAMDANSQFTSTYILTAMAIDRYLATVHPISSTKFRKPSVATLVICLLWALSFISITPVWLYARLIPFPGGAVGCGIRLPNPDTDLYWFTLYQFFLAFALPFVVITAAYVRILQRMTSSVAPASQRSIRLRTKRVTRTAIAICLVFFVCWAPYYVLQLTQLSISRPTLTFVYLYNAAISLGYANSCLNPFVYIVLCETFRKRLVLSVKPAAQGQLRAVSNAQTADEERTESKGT

melting point [°C]	inhibition at 1 µM [1] [%]	Compound
170 to 172	-2.6	Cl.O=c1cc(OCc2ccc(F)cn2)ccn1-c1ccc2sc3c(c2c1)CNCCC3 [Example 119, 4-((5-Fluoropyridin-2-yl)methoxy)-1-(2,3,4,5-tetrahydro-1H-benzo[4,5]thieno[3,2-c]azepin-9-yl)pyridin-2(1H)-one hydrochloride]
180 to 182	1.3	Cl.O=c1cc(OCc2ccc(F)cn2)ccn1-c1ccc2sc3c(c2c1)CCCNC3 [Example 120, 4-(5-Fluoropyridin-2-ylmethoxy)-1-(2,3,4,5-tetrahydro-1H-benzo[4,5]thieno[2,3-c]azepin-7-yl)pyridin-2(1H)-one hydrochloride]
